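Compound exposure: 48 hours, 5 concentrations, 96-well plates. Here, GI50 denotes the concentration required for 50% inhibition of growth. TGI: total growth inhibition.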
Experiments:
Experiment in all cases: growth of human tumour cells (NCI), 48 h
A549 NSCLC = tested on: A549 NSCLC
DU-145 prostate = tested on: DU-145 prostate
HCC-2998 colon = tested on: HCC-2998 colon
HCT-15 colon = tested on: HCT-15 colon
HOP-62 NSCLC = tested on: HOP-62 NSCLC
K-562 leukemia = tested on: K-562 leukemia
M14 melanoma = tested on: M14 melanoma
OVCAR-3 ovarian = tested on: OVCAR-3 ovarian
SK-OV-3 ovarian = tested on: SK-OV-3 ovarian
SW-620 colon = tested on: SW-620 colon

SMILES	TGI (A549 NSCLC)	TGI (DU-145 prostate)	TGI (HCC-2998 colon)	TGI (HCT-15 colon)	TGI (HOP-62 NSCLC)	TGI (K-562 leukemia)	TGI (M14 melanoma)	TGI (OVCAR-3 ovarian)	TGI (SK-OV-3 ovarian)	TGI (SW-620 colon)	GI50 (A549 NSCLC)	GI50 (DU-145 prostate)	GI50 (HCC-2998 colon)	GI50 (HOP-62 NSCLC)	GI50 (K-562 leukemia)	GI50 (M14 melanoma)	GI50 (OVCAR-3 ovarian)	GI50 (SK-OV-3 ovarian)	GI50 (HCT-15 colon)	GI50 (SW-620 colon)
O=C(O)c1ccc(NC(c2ccccc2)c2ccc3cccnc3c2O)cc1 (stereo unspecified)	> 100 µM	> 100 µM	> 74.8 µM	> 100 µM	> 100 µM	> 49.8 µM	> 85.5 µM	14.2 µM	> 100 µM	> 55.8 µM	–	–	–	–	–	–	–	–	–	–
O=C1CC(=O)N(c2ccccc2)N1/C(=C/c1ccccc1)c1ccccc1	> 100 µM	82.6 µM	37.3 µM	–	54.5 µM	> 100 µM	46.6 µM	57.1 µM	76.5 µM	37.7 µM	–	–	–	–	–	–	–	–	–	–
COc1ccc(Nc2[nH]c(C(C)=O)c(N)c2C(=S)Nc2ccccc2)cc1	> 100 µM	> 100 µM	> 100 µM	> 100 µM	> 100 µM	> 100 µM	69.3 µM	> 100 µM	> 100 µM	> 100 µM	–	–	–	–	–	–	–	–	–	–
O=C(NS(=O)(=O)Nc1ccc(Cl)cc1)OCc1ccc(Cl)cc1Cl	52.6 µM	46.5 µM	30.9 µM	> 100 µM	> 100 µM	> 100 µM	> 100 µM	36 µM	48.2 µM	> 100 µM	–	–	–	–	–	–	–	–	–	–
CCC(=O)C(c1ccccc1)c1ccccn1 (stereo unspecified)	> 100 µM	> 100 µM	> 100 µM	> 100 µM	> 100 µM	–	> 100 µM	> 100 µM	> 100 µM	> 100 µM	–	–	–	–	–	–	–	–	–	–
C=CC(=O)Nc1cccc(-c2nc(SC)nc(Nc3ccccc3OC)c2C#N)c1	5.24 µM	4.96 µM	8.66 µM	–	6.17 µM	5.62 µM	5.64 µM	3.58 µM	26.9 µM	–	2.08 µM	1.92 µM	2.58 µM	2.25 µM	2.03 µM	2.22 µM	1.87 µM	6.09 µM	–	–
C/C(=N\NC(=S)NC(C)C)c1nc2ncccc2[nH]1	> 100 µM	> 100 µM	> 100 µM	> 100 µM	> 64.2 µM	> 100 µM	> 100 µM	> 100 µM	33.4 µM	> 100 µM	–	–	–	–	–	–	–	–	–	–
Cc1[nH]c(/C=C2\C(=O)Nc3ccc(S(=O)(=O)Cc4c(Cl)cccc4Cl)cc32)c(C)c1C(=O)N1CCC[C@@H]1CN1CCCC1	–	3.39 µM	3.6 µM	3.51 µM	4.55 µM	> 100 µM	2.92 µM	47.4 µM	59.1 µM	3.29 µM	–	1.85 µM	1.95 µM	1.99 µM	1.63 µM	1.5 µM	16 µM	22.4 µM	1.71 µM	1.78 µM
Nc1n[nH]c(=O)[nH]1	> 100 µM	–	> 100 µM	> 100 µM	> 100 µM	> 100 µM	–	> 100 µM	> 100 µM	> 100 µM	–	–	–	–	–	–	–	–	–	–
CSC1=Nc2ccccc2N(C)c2c1c(-c1ccccc1)nn2C	> 100 µM	> 100 µM	56 µM	> 100 µM	–	55.9 µM	> 100 µM	> 100 µM	> 100 µM	> 100 µM	–	–	–	–	–	–	–	–	–	–
CCn1cc(C(c2ccc(Cl)cc2)n2ccnc2)c2cc(Br)ccc21 (stereo unspecified)	24 µM	30.3 µM	29 µM	30.6 µM	28.6 µM	33.5 µM	26.7 µM	22.2 µM	33.3 µM	–	–	–	–	–	–	–	–	–	–	–
N#Cc1c(NC(=S)NC(=O)c2ccccc2)nc2c(c1-c1ccccc1)CCC2	> 100 µM	> 100 µM	–	> 100 µM	> 100 µM	> 100 µM	> 100 µM	> 100 µM	> 100 µM	> 100 µM	–	–	–	–	–	–	–	–	–	–
CC(C)CC(N)C(=O)OCN1C(=O)C2C3C=CC(C2C1=O)C1C2C(=O)N(COC(=O)C(N)CC(C)C)C(=O)C2C31 (stereo unspecified)	> 100 µM	–	> 100 µM	> 64.5 µM	> 100 µM	> 100 µM	> 100 µM	> 100 µM	> 100 µM	> 75.6 µM	–	–	–	–	–	–	–	–	–	–
Nc1ccccc1Nc1ccccc1C(=O)[O-].Nc1ccccc1Nc1ccccc1C(=O)[O-].[Cu+2]	> 100 µM	–	> 100 µM	> 100 µM	> 100 µM	> 100 µM	> 100 µM	> 100 µM	> 100 µM	> 100 µM	–	–	–	–	–	–	–	–	–	–
O=C(Nc1ccc(I)cc1C(=O)NCCO)c1cccs1	> 100 µM	–	> 100 µM	> 100 µM	> 100 µM	> 100 µM	> 100 µM	> 100 µM	> 100 µM	> 100 µM	–	–	–	–	–	–	–	–	–	–
Cc1ccc(-c2cc(N)n(-c3nc4c([nH]3)c(=O)n(C)c(=O)n4C)n2)cc1	> 100 µM	20.4 µM	> 100 µM	18.6 µM	16.4 µM	> 100 µM	24.4 µM	18.9 µM	16.1 µM	–	–	–	–	–	–	–	–	–	–	–
OCC1CCCC(n2cnc3c(=S)nc[nH]c32)O1 (stereo unspecified)	> 100 µM	> 100 µM	> 100 µM	> 100 µM	> 100 µM	> 100 µM	> 100 µM	> 100 µM	> 100 µM	> 100 µM	–	–	–	–	–	–	–	–	–	–
COC1OC(=O)[C@H]2O[N+]([O-])=C(C)[C@@H]12 (stereo partly specified)	> 100 µM	–	> 100 µM	> 100 µM	> 100 µM	> 100 µM	–	> 100 µM	> 100 µM	> 100 µM	–	–	–	–	–	–	–	–	–	–

From PubChem BioAssay (NCI)
